Test results taken from patent publication US9145372B2, “Pyridazine derivatives, compositions and methods for treating cognitive impairment” (AGENEBIO, INC., priority 2010, dated 2015).

Legend:
[1] = target: T1, GABAA α5β3γ2 subtype receptor (Homo sapiens, UniProt P18507+P31644); test: GABA-gated Cl- current potentiation in Xenopus oocytes expressing GABAA α5β3γ2 (TEVC); assay type: cell-based
T1 construct: myc-His (vector-encoded); expressed in transfected cells; host or cells: Xenopus laevis oocytes injected with cDNAs
T1 sequence (P31644 32-462): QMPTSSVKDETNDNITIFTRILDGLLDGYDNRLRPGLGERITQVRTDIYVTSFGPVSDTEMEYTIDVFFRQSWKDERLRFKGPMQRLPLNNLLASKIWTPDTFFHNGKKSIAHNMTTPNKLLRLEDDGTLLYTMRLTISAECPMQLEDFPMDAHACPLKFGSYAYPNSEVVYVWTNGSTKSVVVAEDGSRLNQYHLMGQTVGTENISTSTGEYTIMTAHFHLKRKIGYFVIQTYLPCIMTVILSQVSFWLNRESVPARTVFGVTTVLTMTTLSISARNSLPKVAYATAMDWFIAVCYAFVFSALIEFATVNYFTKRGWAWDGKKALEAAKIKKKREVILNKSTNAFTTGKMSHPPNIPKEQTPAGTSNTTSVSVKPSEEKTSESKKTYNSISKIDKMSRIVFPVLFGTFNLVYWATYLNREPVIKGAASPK
T1 sequence (P28472 26-473 partner): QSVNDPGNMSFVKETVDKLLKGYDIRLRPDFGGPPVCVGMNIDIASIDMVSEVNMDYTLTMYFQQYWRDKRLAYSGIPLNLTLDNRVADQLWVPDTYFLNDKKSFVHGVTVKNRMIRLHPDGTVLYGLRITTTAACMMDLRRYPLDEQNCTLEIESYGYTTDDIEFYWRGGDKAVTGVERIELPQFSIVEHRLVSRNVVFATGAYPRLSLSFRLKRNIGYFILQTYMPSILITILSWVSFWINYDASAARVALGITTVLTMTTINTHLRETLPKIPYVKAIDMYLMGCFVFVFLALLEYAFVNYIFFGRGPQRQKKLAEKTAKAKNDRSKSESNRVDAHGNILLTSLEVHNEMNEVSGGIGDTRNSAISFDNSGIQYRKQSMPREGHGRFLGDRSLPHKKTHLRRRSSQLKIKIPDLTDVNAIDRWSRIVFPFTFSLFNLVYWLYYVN
T1 sequence (P18507 40-467 limits assumed): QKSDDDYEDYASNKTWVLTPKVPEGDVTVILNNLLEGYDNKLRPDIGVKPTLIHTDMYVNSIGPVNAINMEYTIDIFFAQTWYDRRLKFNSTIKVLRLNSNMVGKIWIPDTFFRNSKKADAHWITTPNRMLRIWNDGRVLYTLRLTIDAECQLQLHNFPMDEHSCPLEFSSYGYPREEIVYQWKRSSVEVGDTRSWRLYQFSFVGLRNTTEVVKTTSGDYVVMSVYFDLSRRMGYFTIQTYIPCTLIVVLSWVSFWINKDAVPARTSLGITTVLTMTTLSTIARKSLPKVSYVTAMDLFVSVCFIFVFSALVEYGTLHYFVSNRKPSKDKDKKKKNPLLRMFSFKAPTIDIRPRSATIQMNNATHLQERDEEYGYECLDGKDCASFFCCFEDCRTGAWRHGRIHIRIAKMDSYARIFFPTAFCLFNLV
Source text: (§1) Step 1: Establish Clones of GABAAR Subunits (α5, β3, γ2, α1, α2 and α3) and Prepare the Corresponding cRNAs: Human clones of GABAA-R α5, β3, γ2, α1, α2 and α3 subunits are obtained from commercial resources (e.g., OriGene, http://www.origene.com and Genescript, http://www.genescript.com). These clones are engineered into pRC, pCDM, pcDNA, and pBluescript KSM vector (for oocyte expression) or other equivalent expression vectors. Conventional transfection agents (e.g., FuGene, Lipofectamine 2000, or others) are used to transiently transfect host cells.
Adult female Xenopus laevis frogs were purchased from Nasco (Fort Atkinson, Wis.). […] All chemicals used were of reagent grade. […] Stock solutions of Diazepam, Flumazenil and compounds of the present invention were prepared in dimethyl sulfoxide (DMSO) and then diluted to an appropriate concentration with the extracellular solution just before use. To avoid adverse effects from DMSO exposure, the final concentration of DMSO was not higher than 0.3% (v/v).
Upon conclusion of compound testing and successful washout, a 1.0 μM Diazepam was tested and used for comparative activity on the two GABAAR subtypes.
Other concentrations of the test compound may also be tested following the same protocol.
Results are expressed as mean±SEM.

[2] = target: T2, GABAA α1 receptors (α1β2γ2) (Homo sapiens, UniProt P14867+P18507); test: GABA-gated Cl- current in Xenopus oocytes expressing GABAA α1β2γ2 (TEVC), off-target activity; assay type: cell-based; settings: concentration response 0.01-100 μM; FIGS. 1(A)-(D)
T2 construct: expressed in transfected cells; host or cells: Xenopus laevis oocytes injected with cDNAs
T2 sequence (P14867 28-456): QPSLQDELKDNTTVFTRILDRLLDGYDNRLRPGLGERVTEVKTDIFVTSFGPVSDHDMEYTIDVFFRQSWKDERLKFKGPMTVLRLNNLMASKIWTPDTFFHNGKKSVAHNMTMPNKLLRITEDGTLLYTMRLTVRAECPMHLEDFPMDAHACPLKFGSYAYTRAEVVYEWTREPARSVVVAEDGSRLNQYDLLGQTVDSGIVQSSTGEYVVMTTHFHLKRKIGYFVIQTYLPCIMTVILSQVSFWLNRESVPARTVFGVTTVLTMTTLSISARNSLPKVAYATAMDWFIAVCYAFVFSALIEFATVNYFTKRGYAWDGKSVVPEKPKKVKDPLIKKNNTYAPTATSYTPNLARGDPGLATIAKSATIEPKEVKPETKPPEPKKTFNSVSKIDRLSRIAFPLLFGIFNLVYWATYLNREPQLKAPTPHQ
T2 sequence (P47870 25-512 partner limits assumed): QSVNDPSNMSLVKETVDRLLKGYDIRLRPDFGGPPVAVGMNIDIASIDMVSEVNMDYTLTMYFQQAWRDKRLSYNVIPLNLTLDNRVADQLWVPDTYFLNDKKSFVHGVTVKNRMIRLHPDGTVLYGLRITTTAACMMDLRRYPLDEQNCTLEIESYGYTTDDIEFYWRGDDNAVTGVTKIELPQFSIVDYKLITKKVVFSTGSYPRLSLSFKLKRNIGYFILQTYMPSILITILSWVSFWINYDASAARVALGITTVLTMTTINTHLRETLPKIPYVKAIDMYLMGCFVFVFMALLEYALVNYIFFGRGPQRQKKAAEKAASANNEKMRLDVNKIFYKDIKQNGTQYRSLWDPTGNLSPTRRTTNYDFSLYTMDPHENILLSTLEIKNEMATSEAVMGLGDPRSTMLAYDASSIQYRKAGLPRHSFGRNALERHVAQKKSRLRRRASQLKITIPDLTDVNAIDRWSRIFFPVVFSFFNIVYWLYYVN
T2 sequence (P18507 40-467 limits assumed): T1 sequence (P18507 40-467 limits assumed)
Source text: as §1
Xenopus oocytes were isolated according to previously published procedures (see, e.g., Goldin et al. Methods Enzymol. 207:266-279 (1992)). The isolated Xenopus oocytes were injected with GABAAR cDNAs (1:1:1 ratio for a total volume of 1 ng of α1βγ2 or α5β3γ2) cloned into mammalian expression vectors. In particular, α1, β2, γ2 were cloned into pcDNA3.1. and α5 and β3 were cloned into pcDNA3.1 myc-His. Vectors were verified by partial sequencing (DNA Core Facility, University of Southern California, USA). After injection, oocytes were stored in incubation medium (Modified Barth's Saline (MBS) supplemented with 2 mM sodium pyruvate, 0.5 mM theophylline and 50 mg/L gentamycin), in petri dishes (VWR, San Dimas, Calif.). All solutions were sterilized by passage through 0.22 μM filters. […] Oocytes were used in experiments for up to 5 days after injection.
A high-throughput two-electrode voltage clamp (TEVC) system (OpusXpress A6000; Molecular Devices, Union City, Calif.), which automates the impalement of oocytes, fluid delivery and current recording from 8 oocytes in parallel, was used to carry out all electrophysiological recordings.
Xenopus Oocytes expressing GABAA-R α5β3γ2 or α1β2γ2 subtype, as prepared in section (A) above, were placed in 8 chambers of OpusXpress and perfused by MBS at 3 mL/min. Glass electrodes back-filled with 3 M KCl (0.5-3 megaohms) were used. Membrane potential of oocytes was voltage-clamped at −60 mV. Oocytes with holding current larger than 0.5 μA were discarded.
Data for each experimental point were obtained from 4 or more Xenopus oocytes and from at least two different frogs. The n refers to the number of Xenopus oocytes tested. Results are expressed as mean±SEM. […] Prism (GraphPAD Software, San Diego, Calif.) and Excel were used to perform curve fitting and statistical analyses.

positive allosteric modulation of GABA at GABAA α5 receptors ([1]; concentration response 0.01-100 μM, FIGS. 1(A)-(D)): strong positive allosteric modulation
activation at 1 µM ([1]; read-out: GABA α5 EC50 % potentiation): 12.3%
SMILES: COC(=O)c1coc(-c2c(-c3ccccc3)cnnc2-c2cccc(OC)c2)n1 [Compound 29]
positive allosteric modulation at GABAA α1 receptors [2]: markedly reduced positive allosteric modulation
